Experimental data reported in patent US5670500A (priority 1995, dated 1997).

How the values were obtained:
Colon 26 = test: Efficacy in mouse tumor models: Colon Carcinoma 26; type: in vivo; details: Colon 26 mouse model
Method: (§1) The efficacy of the compounds of the present invention was also tested in vivo using three well-known mouse tumor models: L1210, Lewis Lung, and Colon Carcinoma 26.

topoisomerase I = target: T1, topoisomerase I (Homo sapiens, UniProt P11387); details: cited from earlier work
T1 sequence (P11387 1-765): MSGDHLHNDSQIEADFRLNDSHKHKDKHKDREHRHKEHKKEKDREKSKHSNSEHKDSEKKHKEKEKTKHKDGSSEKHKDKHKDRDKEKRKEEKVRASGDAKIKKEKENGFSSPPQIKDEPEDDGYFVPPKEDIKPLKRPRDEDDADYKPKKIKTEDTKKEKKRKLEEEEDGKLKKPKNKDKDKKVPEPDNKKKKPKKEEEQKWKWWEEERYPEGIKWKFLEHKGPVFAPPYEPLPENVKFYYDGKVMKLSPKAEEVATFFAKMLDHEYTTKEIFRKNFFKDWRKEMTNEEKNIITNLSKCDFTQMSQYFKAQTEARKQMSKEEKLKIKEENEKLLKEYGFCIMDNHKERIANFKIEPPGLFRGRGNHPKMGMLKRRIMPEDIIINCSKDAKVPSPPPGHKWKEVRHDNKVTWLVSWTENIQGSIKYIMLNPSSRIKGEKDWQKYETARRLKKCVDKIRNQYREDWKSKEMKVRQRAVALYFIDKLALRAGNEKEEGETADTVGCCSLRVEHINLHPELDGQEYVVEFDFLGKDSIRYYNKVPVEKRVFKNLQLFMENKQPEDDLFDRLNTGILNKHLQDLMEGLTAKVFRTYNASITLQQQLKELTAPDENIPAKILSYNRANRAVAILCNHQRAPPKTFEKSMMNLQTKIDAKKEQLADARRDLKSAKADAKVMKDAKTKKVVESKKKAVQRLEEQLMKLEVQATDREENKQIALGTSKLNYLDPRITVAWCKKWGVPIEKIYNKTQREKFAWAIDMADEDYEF

[1] = in vivo; cited from earlier work
topoisomerase II = details: cited from earlier work
[2] = tested on: wild-type (AUX-B1) Chinese Hamster ovary cells; test: CHO Microtiter Cytotoxicity Assay, wild type; type: cell-based; details: Cricetulus griseus, AuxB1, 72 h, 3 days, XTT
Method: (§2) CHO Microtiter Cytotoxicity Assay
(§3) Chinese Hamster ovary cells are grown in Alpha MEM Medium with L-glutamine and nucleosides and containing 10% fetal bovine serum and 100 units per mL penicillin-streptomycin in 75 cm^2 canted neck tissue culture flasks. They are harvested from these flasks using 0.5% trypsin. Microtiter plates (96-well, sterile, flat bottom) (Corning 25860) are seeded with 1.6×10^3 wild-type (AUX-B1) Chinese Hamster ovary cells per well or 2×10^3 multidrug resistant (CH^R C5) Chinese Hamster ovary cells per well. The plates are incubated at 37° C., 5% CO2 overnight to allow the cells to attach. The outside wells of each plate are not used, due to evaporation during the incubation time. They are filled with medium and used as blanks. The next day, the medium is aspirated from the wells and 180 μL of fresh medium is added to each well. Compounds are diluted from stock solution in DMSO into fresh medium to a 10X concentration containing 2% DMSO. Twenty μL of this is then added to the 180 μL of fresh meduim in the wells. The plates are then incubated for another 3 days at 37° C., 5% CO2. […] The plate is then read on a UV Max plate reader, using wells without cells .(i.e., containing only 200 μL of medium and 50 μL of XTT/PMS solution) as a background control.

L1210 = test: Efficacy in mouse tumor models: L1210; type: in vivo; details: L1210 mouse model, dose 42 mg/kg ip
Method: as §1

[3] = tested on: multidrug resistant (CH^R C5) Chinese Hamster ovary cells; test: CHO Microtiter Cytotoxicity Assay, multidrug resistant; type: cell-based; details: Cricetulus griseus, CHRC5, 72 h, 3 days, XTT
Method: as §2, §3

Lewis Lung = test: Efficacy in mouse tumor models: Lewis Lung; type: in vivo; details: Lewis Lung mouse model, dose 9 mg/kg ip
Method: as §1

[4] = tested on: solid tumor cancers, particularly ovarian cancer and non-small cell lung carcinoma; details: humans; cited from earlier work

| Compound | toxicity [1] | IC50 [2] [µM] | % Inc. in Lifespan, Colon 26 (Colon 26; dose 20 mg/kg sc) [%] | IC50 [3] [µM] | further results |
| --- | --- | --- | --- | --- | --- |
| CC[C@@]1(O)C(=O)OCc2c1cc1n(c2=O)Cc2cc3ccccc3nc2-1 [Camptothecin] | unacceptable dose limiting toxicity, unpredictable toxicity | – | – | – | % Inc. in Lifespan, Colon 26 (Colon 26; dose 4 mg/kg ip): 50%; inhibition of topoisomerase I (topoisomerase I): inhibit topoisomerase I; effect on topoisomerase II (topoisomerase II): no effect on topoisomerase II |
| CC[C@@]1(O)C(=O)OCc2c1cc1n(c2=O)Cc2cc3c4c(ccc3nc2-1)OC(CN1CCOCC1)C4 (stereo partly drawn) [Formula III, (8S)-8-ethyl-1,2-dihydro-8-hydroxy-2(4-morpholinylmethyl)11H-furano [3,2-f]-pyrano[3',4':6,7]indolizino[1,2-b]quinoline-9,12(8H,14H)-dione] | – | 0.0055 | 45 | 0.42 | % Inc. in Lifespan, L1210 (L1210): 350% |
| CC[C@@]1(O)C(=O)OCc2c1cc1n(c2=O)Cc2cc3c4c(ccc3nc2-1)OC(CN(C)C)C4 (stereo partly drawn) [Formula IV, (8S)-2-[(dimethylamino)methyl]-8-ethyl-1,2-dihydro-8-hydroxy-11H-furano[3,2-f]-pyrano [3',4':6,7]indolizino[1,2-b]quinoline-9,12(8H,14H)-dione] | – | 0.018 | 32 | 1 | % Inc. in Lifespan, Lewis Lung (Lewis Lung): 67% |
| CC[C@@]1(O)C(=O)OCc2c1cc1n(c2=O)Cc2cc3c(CN(C)C)c(O)ccc3nc2-1 [Topotecan, 9-dimethylaminomethyl-10-hydroxycamptothecin, reference compound] | – | – | 45 | – | efficacy in clinical tests [4]: demonstrated efficacy against several solid tumor cancers, particularly ovarian cancer and non-small cell lung carcinoma |
| (S)-10-amino-4-ethyl-4-hydroxy-1H-pyrano[3',4':6,7]indolizino [1,2-b]quinoline-3,14(4H,12H)-dione [CPT-11] | adverse toxicity profile | – | – | – | – |
